Counter-ions that a name gives are not always drawn. Like-named read-outs stand apart in the source and are kept apart here.
What was measured:
[1] = animal models, rats, cited from earlier work
[2] = animal studies, cited from earlier work
[3] = biological target: serotonin transporter (SERT) (Homo sapiens, UniProt P31645); assay: NIMH-PDSP radioligand binding affinity, SERT; conditions: read-out: SERT binding, 50% threshold inhibition (MT)
Procedure: Binding affinities reported in Tables 1-3 were conducted by the National Institute of Mental Health Psychoactive Drug Screening Program (NIMH-PDSP).

[4] = biological target: T1, 5-HT2CR (Homo sapiens, UniProt P28335); assay: NIMH-PDSP radioligand binding affinity, 5-HT2C; conditions: for inhibition at 10 µM: read-out: 5-HT2C binding, 50% threshold inhibition (MT)
T1 sequence (P28335 33-458): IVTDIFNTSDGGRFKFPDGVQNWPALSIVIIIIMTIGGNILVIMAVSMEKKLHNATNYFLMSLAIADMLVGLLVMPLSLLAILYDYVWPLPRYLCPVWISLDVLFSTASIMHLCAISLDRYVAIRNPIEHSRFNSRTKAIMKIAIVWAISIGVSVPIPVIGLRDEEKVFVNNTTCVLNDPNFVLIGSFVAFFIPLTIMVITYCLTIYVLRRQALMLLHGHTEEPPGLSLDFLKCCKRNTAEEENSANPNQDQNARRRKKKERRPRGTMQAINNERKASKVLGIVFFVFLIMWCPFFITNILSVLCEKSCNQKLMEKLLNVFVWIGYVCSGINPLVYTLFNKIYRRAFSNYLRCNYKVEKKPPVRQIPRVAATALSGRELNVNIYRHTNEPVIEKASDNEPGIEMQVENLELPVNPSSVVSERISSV

[5] = biological target: T2, D4R (Homo sapiens, UniProt P21917); assay: NIMH-PDSP radioligand binding affinity, D4; conditions: read-out: D4 binding, 50% threshold inhibition (MT)
T2 sequence (P21917 1-419): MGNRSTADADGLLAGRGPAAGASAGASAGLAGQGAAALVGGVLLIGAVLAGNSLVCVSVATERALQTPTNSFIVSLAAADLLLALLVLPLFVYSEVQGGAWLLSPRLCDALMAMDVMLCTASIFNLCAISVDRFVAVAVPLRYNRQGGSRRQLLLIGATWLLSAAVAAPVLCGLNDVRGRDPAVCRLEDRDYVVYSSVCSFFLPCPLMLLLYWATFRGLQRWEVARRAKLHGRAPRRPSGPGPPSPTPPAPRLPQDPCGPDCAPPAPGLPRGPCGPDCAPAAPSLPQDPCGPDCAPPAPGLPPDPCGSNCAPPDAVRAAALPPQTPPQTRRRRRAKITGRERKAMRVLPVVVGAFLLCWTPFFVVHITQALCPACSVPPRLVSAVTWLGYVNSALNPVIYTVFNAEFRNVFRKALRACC

[6] = biological target: D2R (Homo sapiens, UniProt P14416); assay: NIMH-PDSP radioligand binding affinity, D2; conditions: for inhibition at 10 µM: read-out: D2 binding, 50% threshold inhibition (MT)
Sequence of D2R (P14416 whole entry): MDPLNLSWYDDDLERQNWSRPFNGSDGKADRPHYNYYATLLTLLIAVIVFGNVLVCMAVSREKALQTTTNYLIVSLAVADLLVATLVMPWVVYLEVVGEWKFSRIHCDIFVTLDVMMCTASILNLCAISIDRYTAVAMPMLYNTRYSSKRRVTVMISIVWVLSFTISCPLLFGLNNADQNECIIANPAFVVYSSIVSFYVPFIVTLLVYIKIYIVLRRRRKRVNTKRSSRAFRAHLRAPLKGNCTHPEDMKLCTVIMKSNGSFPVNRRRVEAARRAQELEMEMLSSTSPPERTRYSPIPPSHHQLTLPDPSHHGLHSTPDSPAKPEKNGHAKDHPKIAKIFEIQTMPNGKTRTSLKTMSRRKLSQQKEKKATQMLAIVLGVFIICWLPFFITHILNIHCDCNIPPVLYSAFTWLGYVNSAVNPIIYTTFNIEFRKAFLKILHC

[7] = biological target: D3R (Homo sapiens, UniProt P35462); assay: NIMH-PDSP radioligand binding affinity, D3
Sequence of D3R (P35462 whole entry): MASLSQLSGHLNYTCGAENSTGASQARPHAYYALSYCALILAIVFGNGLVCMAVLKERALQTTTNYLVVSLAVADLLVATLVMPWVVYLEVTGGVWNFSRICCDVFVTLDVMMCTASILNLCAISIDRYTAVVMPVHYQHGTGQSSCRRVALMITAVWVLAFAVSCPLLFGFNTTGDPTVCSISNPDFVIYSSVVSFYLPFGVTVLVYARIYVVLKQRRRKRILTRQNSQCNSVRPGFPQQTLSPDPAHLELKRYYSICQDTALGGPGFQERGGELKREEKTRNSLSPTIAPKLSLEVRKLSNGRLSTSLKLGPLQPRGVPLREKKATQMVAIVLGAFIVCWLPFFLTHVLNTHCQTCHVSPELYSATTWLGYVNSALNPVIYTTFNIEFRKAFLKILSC

[8] = biological target: T3, 5-HT7AR (Homo sapiens, UniProt P34969); assay: HEK-5-HT7A/cAMP adenylate cyclase functional assay, agonist effects; format: cell-based
T3 construct: expressed in transfected cells; host or cells: Human embryonic kidney (HEK) cells, transient transfection with PEI
T3 sequence (P34969 1-445 isoform P34969-2): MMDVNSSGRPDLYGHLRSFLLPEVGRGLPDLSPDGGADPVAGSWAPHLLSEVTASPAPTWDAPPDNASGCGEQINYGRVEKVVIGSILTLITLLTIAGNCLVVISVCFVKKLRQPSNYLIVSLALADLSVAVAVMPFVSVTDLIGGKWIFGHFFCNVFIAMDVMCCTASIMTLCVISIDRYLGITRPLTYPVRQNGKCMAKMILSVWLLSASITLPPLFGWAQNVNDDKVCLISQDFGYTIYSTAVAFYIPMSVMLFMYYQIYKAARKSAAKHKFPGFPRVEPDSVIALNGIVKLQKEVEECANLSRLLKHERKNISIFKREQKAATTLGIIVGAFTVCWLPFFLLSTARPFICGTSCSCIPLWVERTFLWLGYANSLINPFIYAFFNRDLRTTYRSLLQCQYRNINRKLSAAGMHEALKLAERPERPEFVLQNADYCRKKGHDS

Sequence of serotonin transporter (SERT) (P31645 whole entry, species assumed): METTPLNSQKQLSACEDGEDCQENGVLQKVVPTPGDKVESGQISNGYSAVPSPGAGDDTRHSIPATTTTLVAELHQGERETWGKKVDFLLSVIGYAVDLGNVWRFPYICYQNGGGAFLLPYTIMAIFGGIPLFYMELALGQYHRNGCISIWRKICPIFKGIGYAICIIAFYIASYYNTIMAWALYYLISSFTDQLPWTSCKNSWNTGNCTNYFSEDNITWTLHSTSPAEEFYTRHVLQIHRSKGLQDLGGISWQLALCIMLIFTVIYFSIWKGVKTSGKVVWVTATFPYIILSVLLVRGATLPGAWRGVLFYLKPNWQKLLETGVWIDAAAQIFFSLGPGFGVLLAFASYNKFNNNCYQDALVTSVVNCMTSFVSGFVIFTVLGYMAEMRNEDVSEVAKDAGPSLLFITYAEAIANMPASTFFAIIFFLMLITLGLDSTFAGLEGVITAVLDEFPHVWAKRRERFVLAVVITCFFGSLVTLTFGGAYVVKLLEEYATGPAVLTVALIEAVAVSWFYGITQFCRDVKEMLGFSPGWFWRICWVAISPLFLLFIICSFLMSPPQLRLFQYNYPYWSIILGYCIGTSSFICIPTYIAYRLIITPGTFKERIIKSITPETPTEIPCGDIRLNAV

Compound | melting point [°C] | inhibition at 10 µM [3] [%] | other results
Clc1ccc2c(c1)CC(CCN1CCN(c3ccccn3)CC1)C2 (centres unmarked) (as salt: HCl) [Compound 16, 1-(2-(5-chloro-2,3-dihydro-1H-inden-2-yl)ethyl)-4-(pyridin-2-yl)piperazine] | 267 to 270 |  | 
O=C1c2ccc(Cl)cc2CC1CCCCN1CCN(c2ccccn2)CC1 (centres unmarked) (as salt: HCl) [Compound 20, 5-chloro-2-(4-(4-(pyridin-2-yl)piperazin-1-yl)butyl)-2,3-dihydro-1H-inden-1-one] | 233 to 234 |  | 
OC1c2ccc(F)cc2CC1CCN1CCN(c2ccccn2)CC1 (centres unmarked) (as salt: hydroiodid) [Compound 14, 5-Fluoro-2-[2-(4-pyridin-2-yl-piperazin-1-yl)-ethyl]-indan-1-ol] | 174 to 175 |  | 
CC(=O)Nc1ccc(C(=O)CCCN2CCN(c3ccccn3)CC2)cc1 (as salt: oxalate) [Compound 3, N-(4-(4-(4-(pyridin-2-yl)piperazin-1-yl)butanoyl)phenyl) acetamide oxalate] | 140 to 142 |  | 
O=C1CCc2cc(OCCCN3CCCN(c4ccccn4)CC3)ccc2N1 (as salt: oxalate) [Compound 10, 6-(3-(4-(pyridin-2-yl)-1,4-diazepan-1-yl)propoxy)-3,4-dihydroquinolin-2(1H)-one oxalate] | 190 to 192 |  | 
Fc1ccc(CCCCN2CCN(c3ccccn3)CC2)cc1 [Compound 2, 1-(4-(4-fluorophenyl)butyl)-4-(pyridin-2-yl)piperazine] |  |  | catalepsy / motoric side effects (in words) [1]: low propensity to cause catalepsy; catalepsy / motoric side effects (in words) ([1]; listed as SYA 16263): low propensity to cause motoric side effects; catalepsy / motoric side effects (in words) ([1]; listed as SYA16263): absence of catalepsy; antipsychotic-like activity (in words) ([2]; listed as SYA 16263): moderate antipsychotic-like activity; antipsychotic-like activity (in words) ([2]; listed as SYA16263): antipsychotic-like properties
CC(=O)Nc1ccc(C(=O)CCCN2CCN(c3ccccn3)CC2)cc1 [Compound 3, N-(4-(4-(4-(pyridin-2-yl)piperazin-1-yl)butanoyl)phenyl) acetamide oxalate] |  | < 50 | 
CC(=O)Nc1ccc(CCCCN2CCN(c3ccccn3)CC2)cc1 [Compound 4, N-(4-(4-(4-(pyridin-2-yl)piperazin-1-yl)butyl)phenyl)acetamide] |  | < 50 | 
Nc1ccc(C(=O)CCCN2CCN(c3ccccn3)CC2)cc1 [Compound 5, 1-(4-aminophenyl)-4-(4-(pyridin-2-yl)piperazin-1-yl)butan-1-one] | 203 to 204 | < 50 | 
Nc1ccc(CCCCN2CCN(c3ccccn3)CC2)cc1 [Compound 6, 4-(4-(4-(pyridin-2-yl)piperazin-1-yl)butyl)aniline] |  | < 50 | inhibition at 10 µM [4]: < 50%
O=C1CCc2cc(C(=O)CCCN3CCN(c4ccccn4)CC3)ccc2N1 [Compound 7, 6-(4-(4-(pyridin-2-yl)piperazin-1-yl)butanoyl)-3,4-dihydroquinolin-2(1H)-one] | 192 to 193 | < 50 | inhibition at 10 µM [4]: < 50%
O=C1CCc2cc(CCCCN3CCN(c4ccccn4)CC3)ccc2N1 [Compound 8, 6-(4-(4-(pyridin-2-yl)piperazin-1-yl)butyl)-3,4-dihydroquinolin-2(1H)-one] | 144 to 145 |  | 
O=C1CCc2cc(OCCCN3CCN(c4ccccn4)CC3)ccc2N1 [Compound 9, 6-(3-(4-(pyridin-2-yl)piperazin-1-yl)propoxy)-3,4-dihydroquinolin-2(1H)-one] | 154 to 155 |  | 
O=C1CCc2cc(OCCCN3CCCN(c4ccccn4)CC3)ccc2N1 [Compound 10, 6-(3-(4-(pyridin-2-yl)-1,4-diazepan-1-yl)propoxy)-3,4-dihydroquinolin-2(1H)-one oxalate] |  |  | inhibition at 10 µM [5]: < 50%
O=C1CCc2cc(OCCCN3CCN(c4ccccn4)CC3)ccc21 [Compound 11, 5-(3-(4-(pyridin-2-yl)piperazin-1-yl)propoxy)-2,3-dihydro-1H-inden-1-one] | 103 to 104 | < 50 | inhibition at 10 µM [6]: < 50%
O=C(CCCN1CCN(c2ccccn2)CC1)c1ccc2c(c1)CCC2 [Compound 12, 1-(2,3-Dihydro-1H-inden-5-yl)-4-(4-(pyridin-2-yl)piperazin-1-yl)butan-1-one] | 74 to 75 | < 50 | 
O=C1c2ccc(F)cc2CC1CCN1CCN(c2ccccn2)CC1 (centres unmarked) [Compound 13, 5-Fluoro-2-(2-(4-(pyridin-2-yl)piperazin-1-yl)ethyl)-2,3-dihydro-1H-inden-1-one] |  | < 50 | binding affinity at D2R (in words) [6]: complete loss of binding affinity; inhibition at 10 µM [6]: < 50%; 5-HT2C binding, 50% threshold inhibition (MT) ([4]; 10 µM): MT (key: MT = missed 50% threshold inhibition at 10 μM concentration)
OC1c2ccc(F)cc2CC1CCN1CCN(c2ccccn2)CC1 (centres unmarked) [Compound 14, 5-Fluoro-2-[2-(4-pyridin-2-yl-piperazin-1-yl)-ethyl]-indan-1-ol] |  |  | inhibition at 10 µM [4]: < 50%
O=C1c2ccc(Cl)cc2CC1CCN1CCN(c2ccccn2)CC1 (centres unmarked) [Compound 15, 5-chloro-2-(2-(4-(pyridin-2-yl)piperazin-1-yl)ethyl)-2,3-dihydro-1H-inden-1-one] | 132 to 135 | < 50 | binding affinity at D2R (in words) [6]: lost; inhibition at 10 µM [6]: < 50%; binding affinity at D3R (in words) [7]: lost; inhibition at 10 µM ([7]; read-out: D3 binding, 50% threshold inhibition (MT)): < 50%
Clc1ccc2c(c1)CC(CCN1CCN(c3ccccn3)CC1)C2 (centres unmarked) [Compound 16, 1-(2-(5-chloro-2,3-dihydro-1H-inden-2-yl)ethyl)-4-(pyridin-2-yl)piperazine] |  | < 50 | 
O=C1c2cc(Cl)ccc2CC1CCN1CCN(c2ccccn2)CC1 (centres unmarked) [Compound 17, 6-chloro-2-(2-(4-(pyridin-2-yl)piperazin-1-yl)ethyl)-2,3-dihydro-1H-inden-1-one] |  | < 50 | 
O=C1c2cc(Cl)c(Cl)cc2CC1CCN1CCN(c2ccccn2)CC1 (centres unmarked) [Compound 18, 5,6-Dichloro-2-(2-(4-(pyridin-2-yl)piperazin-1-yl)ethyl)-2,3-dihydro-1H-inden-1-one] |  | < 50 | 
O=C1c2ccc(Cl)cc2CC1CCCN1CCN(c2ccccn2)CC1 (centres unmarked) [Compound 19, 5-chloro-2-(3-(4-(pyridin-2-yl)piperazin-1-yl)propyl)-2,3-dihydro-1H-inden-1-one] |  |  | inhibition at 10 µM [6]: < 50%
NCCc1c[nH]c2ccc(O)cc12 [Serotonin] |  |  | agonist activity at 5-HT7AR (in words) [8]: showed agonist properties
O=C1c2ccc(Cl)cc2CC1CCCN1CCN(c2ccccn2)CC1 (centres unmarked) [drawing 43] |  | < 50 | 
